Measured values as given in article PMC5604080, “Genetic and Biochemical Characterization of 2-Chloro-5-Nitrophenol Degradation in a Newly Isolated Bacterium, Cupriavidus sp. Strain CNP-8” (Frontiers in Microbiology, 2017).

Tests used:
MnpC (H6-MnpC) = biological target: T1, MnpC (H6-MnpC) (Cupriavidus sp. CNP-8, UniProt A0A291LMA7); test: spectrophotometric turnover, product with λmax […] nm; assay type: biochemical; conditions: structure analog used in place of unstable aminohydroquinone
T1 construct: full-length, pET-28a NdeI-XhoI, His6-tagged (H6-MnpC), E. coli Rosetta(DE3)pLysS, Ni-NTA purified, about 35 kDa, single-subunit dioxygenase
T1 sequence (A0A291LMA7 1-316): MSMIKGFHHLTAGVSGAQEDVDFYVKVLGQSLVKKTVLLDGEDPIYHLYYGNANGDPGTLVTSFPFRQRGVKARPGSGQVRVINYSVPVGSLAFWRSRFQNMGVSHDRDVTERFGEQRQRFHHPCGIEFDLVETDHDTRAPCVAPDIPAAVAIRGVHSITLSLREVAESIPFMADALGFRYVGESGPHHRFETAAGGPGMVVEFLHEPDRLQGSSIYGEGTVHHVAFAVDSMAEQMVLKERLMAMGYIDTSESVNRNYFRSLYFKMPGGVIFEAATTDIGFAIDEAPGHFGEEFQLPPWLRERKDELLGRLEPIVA

[1] = system: O=[N+]([O-])c1ccc(Cl)c(O)c1; test: purified protein; assay type: biochemical, Cupriavidus sp. CNP-8; conditions: 0.2 mM NADPH, 50 mM phosphate pH 7.5
O=[N+]([O-])c1cccc(O)c1 = test: purified protein; assay type: biochemical, Cupriavidus sp. CNP-8; conditions: 0.2 mM NADPH, 50 mM phosphate pH 7.5

Compound: Oc1ccc(O)c(Cl)c1 [chlorohydroquinone]
- spectrophotometric turnover, product with λmax 320 nm (MnpC (H6-MnpC)): H6-MnpC catalyzed rapid degradation of both CHQ and HQ

Compound: Oc1ccc(O)cc1 [hydroquinone]
- spectrophotometric turnover, product with λmax 320 nm (MnpC (H6-MnpC)): H6-MnpC catalyzed rapid degradation of both CHQ and HQ

Compound: MnpA (H6-MnpA) (Cupriavidus sp. CNP-8)
- Km [1]: 16.3 ± 2.87 µM
- Km (O=[N+]([O-])c1cccc(O)c1): 3.4 ± 1.63 µM
